Experimental data as given in ChEMBL document CHEMBL5370592, “Synthesis and Structure-Activity Relationships of a New Class of Oxadiazoles Targeting DprE1 as Antitubercular Agents” (ACS Med Chem Lett, 2023).
≈ marks a conversion by molar mass, not a printed value.

Assays:
Type in all cases: functional
[1] = system: Mycobacterium tuberculosis; experiment: Antitubercular activity against isoniazid/ethionamide-resistant Mycobacterium tuberculosis NIH1B21 assessed as inhibition of bacterial growth incubated for 2 weeks; details: NIH1B21, 336 h
[2] = system: Mycobacterium tuberculosis; experiment: Antitubercular activity against isonizaid/rifampicin/ethambutol/rifabutin-resistant Mycobacterium tuberculosis NIH_G269DR assessed as inhibition of bacterial growth incubated for 2 weeks; details: 336 h
[3] = system: Mycobacterium tuberculosis; experiment: Antitubercular activity against isoniazid/rifampicin/para-aminosalicylic acid/ofloxacin/prothionamide-resistant Mycobacterium tuberculosis NIHB67 assessed as inhibition of bacterial growth incubated for 2 weeks; details: NIHB67, 336 h
[4] = system: Mycobacterium tuberculosis; experiment: Antitubercular activity against isoniazid/rifampicin/ethambutol/rifabutin-resistant Mycobacterium tuberculosis NIH_G10R assessed as inhibition of bacterial growth incubated for 2 weeks; details: 336 h
[5] = system: Mycobacterium tuberculosis; experiment: Antitubercular activity against isoniazid/prothionamide-resistant Mycobacterium tuberculosis NIHA38 assessed as inhibition of bacterial growth incubated for 2 weeks; details: NIHA38, 336 h
[6] = system: Mycobacterium tuberculosis; experiment: Antitubercular activity against isoniazid/rifampicin/pyrazinamide/prothionamide/rifabutin/ofloxacin/moxifloxacin/levofloxacin-resistant Mycobacterium tuberculosis NIHB188 assessed as inhibition of bacterial growth incubated for 2 weeks; details: NIHB188, 336 h
[7] = system: Mycobacterium tuberculosis; experiment: Antitubercular activity against isonizaid/rifampicin/ethionamide/prothionamide-resistant Mycobacterium tuberculosis NIHA48 assessed as inhibition of bacterial growth incubated for 2 weeks; details: NIHA48, 336 h
[8] = system: Mycobacterium tuberculosis; experiment: Antitubercular activity against isoniazid/rifampicin/streptomycin-resistant Mycobacterium tuberculosis clinical strain 01291696 assessed as inhibition of bacterial growth incubated for 2 weeks; details: Mycobacterium tuberculosis, 01291696, 336 h
[9] = system: Mycobacterium tuberculosis; experiment: Antitubercular activity against isoniazid/prothionamide-resistant Mycobacterium tuberculosis NIHB140 assessed as inhibition of bacterial growth incubated for 2 weeks; details: NIHB140, 336 h
[10] = system: Mycobacterium tuberculosis; experiment: Antitubercular activity against isoniazid/rifampicin/para-aminosalicylic acid/pyrazinamide/prothionamide/rifabutin-resistant Mycobacterium tuberculosis NIHB68 assessed as inhibition of bacterial growth incubated for 2 weeks; details: NIHB68, 336 h
[11] = system: Mycobacterium tuberculosis; experiment: Antitubercular activity against isoniazid/rifampicin/ethambutol/rifabutin-resistant Mycobacterium tuberculosis K22b00MR assessed as inhibition of bacterial growth incubated for 2 weeks; details: 336 h
[12] = system: Mycobacterium tuberculosis; experiment: Antitubercular activity against isoniazid/rifampicin/ethambutol/pyrazinamide/streptomycin/kanamycin-resistant Mycobacterium tuberculosis K20b00MR assessed as inhibition of bacterial growth incubated for 2 weeks; details: 336 h
[13] = system: Mycobacterium tuberculosis; experiment: Antitubercular activity against extensively drug-resistant Mycobacterium tuberculosis NIH1B178 assessed as inhibition of bacterial growth incubated for 2 weeks; details: NIH1B178, 336 h
[14] = system: Mycobacterium tuberculosis; experiment: Antitubercular activity against isoniazid/rifampicin/moxifloxacin-resistant Mycobacterium tuberculosis NIH_G76MR assessed as inhibition of bacterial growth incubated for 2 weeks; details: 336 h
[15] = system: Mycobacterium tuberculosis; experiment: Antitubercular activity against extensively drug-resistant Mycobacterium tuberculosis clinical strain 00202293 assessed as inhibition of bacterial growth incubated for 2 weeks; details: Mycobacterium tuberculosis, 00202293, 336 h
[16] = system: Mycobacterium tuberculosis; experiment: Antitubercular activity against isonizaid/rifampicin/ethambutol/rifabutin/D-cycloserine-resistant Mycobacterium tuberculosis NIH_G21R assessed as inhibition of bacterial growth incubated for 2 weeks; details: 336 h
[17] = system: Mycobacterium tuberculosis; experiment: Antitubercular activity against isoniazid/rifampicin/ethambutol/pyrazinamid/rifabutin-resistant Mycobacterium tuberculosis K26b00MR assessed as inhibition of bacterial growth incubated for 2 weeks; details: 336 h
[18] = system: Mycobacterium tuberculosis; experiment: Antitubercular activity against isoniazid/rifampicin/ethambutol/pyrazinamide/rifabutin/prothionamide-resistant Mycobacterium tuberculosis NIHB302 assessed as inhibition of bacterial growth incubated for 2 weeks; details: NIHB302, 336 h
[19] = system: Mycobacterium tuberculosis; experiment: Antitubercular activity against isoniazid/rifampicin/ethambutol/rifabutin-resistant Mycobacterium tuberculosis K18b01MR assessed as inhibition of bacterial growth incubated for 2 weeks; details: 336 h
[20] = system: Mycobacterium tuberculosis; experiment: Antitubercular activity against isoniazid/rifampicin/ethambutol/pyrazinamide/streptomycin/kanamycin/para-aminosalicylic acid/prothionamide-resistant Mycobacterium tuberculosis K33b00MR assessed as inhibition of bacterial growth incubated for 2 weeks; details: 336 h
[21] = system: Mycobacterium tuberculosis; experiment: Antitubercular activity against rifampicin/isoniazid/streptomycin/prothionamide-resistant Mycobacterium tuberculosis NIHB43 assessed as inhibition of bacterial growth incubated for 2 weeks; details: NIHB43, 336 h
[22] = system: Mycobacterium tuberculosis; experiment: Antitubercular activity against isonizaid/rifampicin/ethambutol/rifabutin-resistant Mycobacterium tuberculosis NIH_G22R assessed as inhibition of bacterial growth incubated for 2 weeks; details: 336 h
[23] = system: Mycobacterium tuberculosis; experiment: Antitubercular activity against ethionamide-resistant Mycobacterium tuberculosis NIH_G145 assessed as inhibition of bacterial growth incubated for 2 weeks; details: NIH_G145, 336 h
[24] = system: Mycobacterium tuberculosis; experiment: Antitubercular activity against isonizaid/rifampicin/rifabutin-resistant Mycobacterium tuberculosis NIHA37 assessed as inhibition of bacterial growth incubated for 2 weeks; details: NIHA37, 336 h
[25] = system: Mycobacterium tuberculosis; experiment: Antitubercular activity against isoniazid/ofloxacin/prothionamide-resistant Mycobacterium tuberculosis NIH1B127 assessed as inhibition of bacterial growth incubated for 2 weeks; details: NIH1B127, 336 h
[26] = system: Mycobacterium tuberculosis; experiment: Antitubercular activity against isoniazid/rifampicin/ethambutol/pyrazinamid/rifabutin/prothionamide-resistant Mycobacterium tuberculosis K25b00MR assessed as inhibition of bacterial growth incubated for 2 weeks; details: 336 h
[27] = system: Mycobacterium tuberculosis; experiment: Antitubercular activity against extensively drug-resistant Mycobacterium tuberculosis 028K111 assessed as inhibition of bacterial growth incubated for 2 weeks; details: 028K111, 336 h
[28] = system: Mycobacterium tuberculosis; experiment: Antitubercular activity against isoniazid/ethambutol/prothionamide/D-cycloserine/ofloxacin/levofloxacin/pyrazinamide-resistant Mycobacterium tuberculosis NIH1B314 assessed as inhibition of bacterial growth incubated for 2 weeks; details: NIH1B314, 336 h
[29] = system: Mycobacterium tuberculosis; experiment: Antitubercular activity against isoniazid/rifampicin/moxifloxacin-resistant Mycobacterium tuberculosis NIH_G367DR assessed as inhibition of bacterial growth incubated for 2 weeks; details: 336 h
[30] = system: Mycobacterium tuberculosis; experiment: Antitubercular activity against streptomycin/D-cycloserine-resistant Mycobacterium tuberculosis NIH_G169 assessed as inhibition of bacterial growth incubated for 2 weeks; details: NIH_G169, 336 h
[31] = system: Mycobacterium tuberculosis; experiment: Antitubercular activity against extensively drug-resistant Mycobacterium tuberculosis 026K111 assessed as inhibition of bacterial growth incubated for 2 weeks; details: 026K111, 336 h
[32] = system: Mycobacterium tuberculosis; experiment: Antitubercular activity against ethambutol/D-cycloserine-resistant Mycobacterium tuberculosis NIH_G11R assessed as inhibition of bacterial growth incubated for 2 weeks; details: 336 h
[33] = system: Mycobacterium tuberculosis; experiment: Antitubercular activity against isoniazid/rifampicin/ethambutol/para-aminosalicylic acid/kanamycin/ofloxacin/prothionamide-resistant Mycobacterium tuberculosis Kb019 assessed as inhibition of bacterial growth incubated for 2 weeks; details: Kb019, 336 h
[34] = system: Mycobacterium tuberculosis; experiment: Antitubercular activity against extensively drug-resistant Mycobacterium tuberculosis clinical strain X37b00XR assessed as inhibition of bacterial growth incubated for 2 weeks; details: 336 h
[35] = system: Mycobacterium tuberculosis; experiment: Antitubercular activity against isoniazid/rifampicin/ethambutol/pyrazinamide/prothionamide/ofloxacin/levofloxacin/rifabutin-resistant Mycobacterium tuberculosis NIHB270 assessed as inhibition of bacterial growth incubated for 2 weeks; details: NIHB270, 336 h
[36] = system: Mycobacterium tuberculosis; experiment: Antitubercular activity against isoniazid/rifampicin/streptomycin/para-aminosalicylic acid/ofloxacin-resistant Mycobacterium tuberculosis K29b00MR assessed as inhibition of bacterial growth incubated for 2 weeks; details: 336 h
[37] = system: Mycobacterium tuberculosis; experiment: Antitubercular activity against extensively drug-resistant Mycobacterium tuberculosis NIHB13 assessed as inhibition of bacterial growth incubated for 2 weeks; details: NIHB13, 336 h
[38] = system: Mycobacterium tuberculosis; experiment: Antitubercular activity against isoniazid/ethionamide/D-cycloserine-resistant Mycobacterium tuberculosis NIH_G17R assessed as inhibition of bacterial growth incubated for 2 weeks; details: 336 h
[39] = system: Mycobacterium tuberculosis; experiment: Antitubercular activity against isoniazid/rifampicin/ethambutol/streptomycin/D-cycloserine/rifabutin-resistant Mycobacterium tuberculosis NIH_G19R assessed as inhibition of bacterial growth incubated for 2 weeks; details: 336 h
[40] = system: Mycobacterium tuberculosis; experiment: Antitubercular activity against isoniazid/rifampicin/ethambutol/streptomycin-resistant Mycobacterium tuberculosis K21b00MR assessed as inhibition of bacterial growth incubated for 2 weeks; details: 336 h
[41] = system: Mycobacterium tuberculosis; experiment: Antitubercular activity against isoniazid/rifampicin/kanamycin/pyrazinamide/capreomycin/amikacin/prothionamide/D-cycloserine-resistant Mycobacterium tuberculosis K32b00MR assessed as inhibition of bacterial growth incubated for 2 weeks; details: 336 h
[42] = system: Mycobacterium tuberculosis; experiment: Antitubercular activity against extensively drug-resistant Mycobacterium tuberculosis NIH1B250 assessed as inhibition of bacterial growth incubated for 2 weeks; details: NIH1B250, 336 h
[43] = system: Mycobacterium tuberculosis; experiment: Antitubercular activity against isonizaid/rifampicin/streptomycin/ethionamide-resistant Mycobacterium tuberculosis NIH_G79 assessed as inhibition of bacterial growth incubated for 2 weeks; details: NIH_G79, 336 h

Question: Which results are given for O=C(C1CCN(c2nnc(-c3ccccc3)o2)CC1)N1CCC(Cc2ccccc2)CC1?
Answer: MIC [1]: 1.56 µM (≈ 0.672 µg/mL); MIC [2]: 1.2 µM (≈ 0.517 µg/mL); MIC [3]: 0.78 µM (≈ 0.336 µg/mL); MIC [4]: 0.6 µM (≈ 0.258 µg/mL); MIC [5]: 0.39 µM (≈ 0.168 µg/mL); MIC [6]: 0.6 µM (≈ 0.258 µg/mL); MIC [7]: 1.56 µM (≈ 0.672 µg/mL); MIC [8]: 0.78 µM (≈ 0.336 µg/mL); MIC [9]: 0.6 µM (≈ 0.258 µg/mL); MIC [10]: 0.39 µM (≈ 0.168 µg/mL); MIC [11]: 1.56 µM (≈ 0.672 µg/mL); MIC [12]: 4.7 µM (≈ 2.02 µg/mL); MIC [13]: 0.78 µM (≈ 0.336 µg/mL); MIC [14]: 1.2 µM (≈ 0.517 µg/mL); MIC [15]: 1.56 µM (≈ 0.672 µg/mL); MIC [16]: 2.3 µM (≈ 0.99 µg/mL); MIC [17]: 1.2 µM (≈ 0.517 µg/mL); MIC [18]: 0.78 µM (≈ 0.336 µg/mL); MIC [19]: 1.56 µM (≈ 0.672 µg/mL); MIC [20]: 2.3 µM (≈ 0.99 µg/mL); MIC [21]: 0.78 µM (≈ 0.336 µg/mL); MIC [22]: 1.2 µM (≈ 0.517 µg/mL); MIC [23]: 1.2 µM (≈ 0.517 µg/mL); MIC [24]: 0.39 µM (≈ 0.168 µg/mL); MIC [25]: 0.39 µM (≈ 0.168 µg/mL); MIC [26]: 1.2 µM (≈ 0.517 µg/mL); MIC [27]: 1.56 µM (≈ 0.672 µg/mL); MIC [28]: 3.13 µM (≈ 1.35 µg/mL); MIC [29]: 3.13 µM (≈ 1.35 µg/mL); MIC [30]: 0.39 µM (≈ 0.168 µg/mL); MIC [31]: 1.56 µM (≈ 0.672 µg/mL); MIC [32]: 0.6 µM (≈ 0.258 µg/mL); MIC [33]: 4.7 µM (≈ 2.02 µg/mL); MIC [34]: 3.13 µM (≈ 1.35 µg/mL); MIC [35]: 1.56 µM (≈ 0.672 µg/mL); MIC [36]: 1.2 µM (≈ 0.517 µg/mL); MIC [37]: 0.78 µM (≈ 0.336 µg/mL); MIC [38]: 0.6 µM (≈ 0.258 µg/mL); MIC [39]: 1.56 µM (≈ 0.672 µg/mL); MIC [40]: 1.2 µM (≈ 0.517 µg/mL); MIC [41]: 1.56 µM (≈ 0.672 µg/mL); MIC [42]: 2.3 µM (≈ 0.99 µg/mL); MIC [43]: 1.56 µM (≈ 0.672 µg/mL)
